# Assay results taken from patent US20120196899A1, “METHODS AND PRODUCTS FOR TREATING INFLAMMATION” (Rock Creek Pharmaceuticals, Inc., priority 2010, published 2012).
# Where “and” joins values, the source holds several entries; their conditions need not be identical. Equal values may be shown once. Read-outs that look alike come from different tables or passages of the source.
# Assay: Concentration in brain extracts after single i.v. bolus
# Format: in vivo, Sprague-Dawley rats
# Details: for concentration at 0.5 h / concentration at 24 h / concentration at 6 h: Sprague-Dawley, rat, brain, intravenous
# Method: Six rats (3 males and 3 females) were dosed per dose group. […] Plasma and brain homogenates were stored at −80° C. until analysis.
# An additional 48 rats (24 males and 24 females) received a single intravenous dose via the tail vein at the same doses as mentioned above. At 30 and 360 minutes post administration, 6 rats (3 males and 3 females) per dose group, per time point were euthanized, bled via cardiac puncture, and perfused, and brains were collected. The brains were homogenized. Blood was spun, and plasma was collected. Plasma and brain homogenate were stored at −80° C.
# The animals were weighed prior to dosing and received a single i.v. dose of either test compound at a volume of 5 mL/kg. Blood was collected via the venus plexus (retro-orbital) into tubes containing (K2) EDTA. No more than 0.5 mL was collected per time point. […] The brain was removed, weighed, homogenized in sterile 0.9% saline at a volume equal to its weight, and stored at −80° C.
# Sample preparation. […] The amount of the test agent in the supernatant was determined by liquid chromatography tandem mass spectrometry (LC/MS/MS).
# Analysis. Samples were analyzed by LC/MS/MS using an Agilent 6410 mass spectrometer coupled with an Agilent 1200 high pressure liquid chromatography (HPLC) and a CTC PAL chilled autosampler, all controlled by MassHunter software (Agilent). After separation on a hydrophilic interaction liquid chromatography (HILIC) HPLC column (Sepax) using an acetonitrile-ammonium acetate/acetic acid gradient system, peaks were analyzed by mass spectrometry (MS) using ESI ionization in multiple reaction monitoring (MRM) mode. MassHunter software was used to calculate the concentration of the test compounds in samples from the peak area using the appropriate calibration curves.
# Calibration samples. Calibration curves were determined for both rat plasma and brain homogenate. Calibration samples were prepared by diluting a 50× stock solution of the test compound in PBS with blank matrix to the appropriate concentration and these samples were prepared as described above in the sample preparation.
smiles,measurement,setting,value
"C1=CCC(c2cccnc2)NC1 (racemic) [Anatabine, 1,2,3,6-tetrahydro-[2,3′]bipyridinyl]",Concentration of anatabine in rat brain extract,"Anatabine 0.1 mg/kg, Rat Brain, 0.5 hr, individual rats",<LLQ and 21 ng/mL and 34 ng/mL and 25 ng/mL and 30 ng/mL
same,Concentration of anatabine in rat brain extract,"Anatabine 0.1 mg/kg, Rat Brain, 6 hr, individual rats",3 ng/mL and <LLQ (2×) and 5 ng/mL and 4 ng/mL and 2 ng/mL
same,Concentration of anatabine in rat brain extract,"Anatabine 0.1 mg/kg, Rat Brain, 24 hr, individual rats",<LLQ (4×) and 2 ng/mL
same,Concentration of anatabine in rat brain extract,"Anatabine 0.75 mg/kg, Rat Brain, 0.5 hr, individual rats",317 ng/mL and 393 ng/mL
same,Concentration of anatabine in rat brain extract,"Anatabine 0.75 mg/kg, Rat Brain, 6 hr, individual rats",28 ng/mL and 19 ng/mL and 17 ng/mL and 27 ng/mL and 20 ng/mL
same,Concentration of anatabine in rat brain extract,"Anatabine 0.75 mg/kg, Rat Brain, 24 hr, individual rats",<LLQ
same,Avg. Conc. rat brain,"Anatabine 0.75 mg/kg, female, 24 hr",<LLQ
same,"Avg. Conc. rat brain, combined male and female","Anatabine 0.75 mg/kg, male and female, 24 hr",<LLQ
same,Avg. Conc. rat brain,"Anatabine 0.75 mg/kg, male, 24 hr",<LLQ
same,Concentration of anatabine in rat brain extract,"Anatabine 1.0 mg/kg, Rat Brain, 0.5 hr, individual rats",338 ng/mL and 362 ng/mL and 393 ng/mL
same,Concentration of anatabine in rat brain extract,"Anatabine 1.0 mg/kg, Rat Brain, 6 hr, individual rats",3 ng/mL and 4 ng/mL (2×) and 8 ng/mL (2×) and <LLQ
same,Concentration of anatabine in rat brain extract,"Anatabine 1.0 mg/kg, Rat Brain, 24 hr, individual rats",2 ng/mL and <LLQ (4×)
same,Avg. Conc. rat brain,"Anatabine 1.0 mg/kg, female, 24 hr",<LLQ
same,concentration at 0.5 h,"0.1 mg/kg, Concentration of anatabine in rat brain extract, Anatabine 0.1 mg/kg, Rat Brain, 0.5 hr, individual rats",0.019 µg/mL
same,concentration at 24 h,"0.1 mg/kg, Concentration of anatabine in rat brain extract, Anatabine 0.1 mg/kg, Rat Brain, 24 hr, individual rats",0.003 µg/mL
same,concentration at 24 h,"1 mg/kg, Concentration of anatabine in rat brain extract, Anatabine 1.0 mg/kg, Rat Brain, 24 hr, individual rats",0.003 µg/mL
same,Mean concentration in rat brain extracts,"anatabine 0.75 mg/kg i.v., 24 hr, Female",<LLQ
same,Mean concentration in rat brain extracts,"anatabine 0.75 mg/kg i.v., 24 hr, Male",<LLQ
same,Mean concentration in rat brain extracts,"anatabine 1.0 mg/kg i.v., 24 hr, Female",<LLQ
same,concentration at 0.5 h,"both sexes, 0.1 mg/kg, Anatabine 0.1 mg/kg, male and female, 0.5 hr, read-out: Avg. Conc. rat brain, combined male and female",25.8 ng/g
same,concentration at 6 h,"both sexes, 0.1 mg/kg, Anatabine 0.1 mg/kg, male and female, 6 hr, read-out: Avg. Conc. rat brain, combined male and female",3.5 ng/g
same,concentration at 24 h,"both sexes, 0.1 mg/kg, Anatabine 0.1 mg/kg, male and female, 24 hr, read-out: Avg. Conc. rat brain, combined male and female",2.5 ng/g
same,concentration at 0.5 h,"both sexes, 0.75 mg/kg, Anatabine 0.75 mg/kg, male and female, 0.5 hr, read-out: Avg. Conc. rat brain, combined male and female",295 ng/g
same,concentration at 6 h,"both sexes, 0.75 mg/kg, Anatabine 0.75 mg/kg, male and female, 6 hr, read-out: Avg. Conc. rat brain, combined male and female",21.2 ng/g
same,concentration at 6 h,"both sexes, 0.75 mg/kg, Concentration of anatabine in rat brain extract, Anatabine 0.75 mg/kg, Rat Brain, 6 hr, individual rats",0.016 µg/mL
same,concentration at 0.5 h,"both sexes, 1 mg/kg, Anatabine 1.0 mg/kg, male and female, 0.5 hr, read-out: Avg. Conc. rat brain, combined male and female",334 ng/g
same,concentration at 6 h,"both sexes, 1 mg/kg, Anatabine 1.0 mg/kg, male and female, 6 hr, read-out: Avg. Conc. rat brain, combined male and female",5.4 ng/g
same,concentration at 24 h,"both sexes, 1 mg/kg, Anatabine 1.0 mg/kg, male and female, 24 hr, read-out: Avg. Conc. rat brain, combined male and female",2.5 ng/g
same,concentration at 0.5 h,"both sexes, 1 mg/kg, Concentration of anatabine in rat brain extract, Anatabine 1.0 mg/kg, Rat Brain, 0.5 hr, individual rats",0.349 µg/mL
same,concentration at 0.5 h,"female, 0.1 mg/kg, Anatabine 0.1 mg/kg, female, 0.5 hr, read-out: Avg. Conc. rat brain",29.7 ng/g
same,concentration at 6 h,"female, 0.1 mg/kg, Anatabine 0.1 mg/kg, female, 6 hr, read-out: Avg. Conc. rat brain",3.7 ng/g
same,concentration at 24 h,"female, 0.1 mg/kg, Anatabine 0.1 mg/kg, female, 24 hr, read-out: Avg. Conc. rat brain",2 ng/g
same,concentration at 0.5 h,"female, 0.1 mg/kg, anatabine 0.1 mg/kg i.v., 0.5 hr, Female, read-out: Mean concentration in rat brain extracts",29.7 ± 4.5 ng/g
same,concentration at 6 h,"female, 0.1 mg/kg, anatabine 0.1 mg/kg i.v., 6 hr, Female, read-out: Mean concentration in rat brain extracts",3.7 ± 1.5 ng/g
same,concentration at 24 h,"female, 0.1 mg/kg, anatabine 0.1 mg/kg i.v., 24 hr, Female, read-out: Mean concentration in rat brain extracts",2 ng/g
same,concentration at 0.5 h,"female, 0.75 mg/kg, Anatabine 0.75 mg/kg, female, 0.5 hr, read-out: Avg. Conc. rat brain",315 ng/g
same,concentration at 6 h,"female, 0.75 mg/kg, Anatabine 0.75 mg/kg, female, 6 hr, read-out: Avg. Conc. rat brain",21 ng/g
same,concentration at 0.5 h,"female, 0.75 mg/kg, anatabine 0.75 mg/kg i.v., 0.5 hr, Female, read-out: Mean concentration in rat brain extracts",315 ± 67.9 ng/g
same,concentration at 6 h,"female, 0.75 mg/kg, anatabine 0.75 mg/kg i.v., 6 hr, Female, read-out: Mean concentration in rat brain extracts",21 ± 6.2 ng/g
same,concentration at 0.5 h,"female, 1 mg/kg, Anatabine 1.0 mg/kg, female, 0.5 hr, read-out: Avg. Conc. rat brain",346 ng/g
same,concentration at 6 h,"female, 1 mg/kg, Anatabine 1.0 mg/kg, female, 6 hr, read-out: Avg. Conc. rat brain",6 ng/g
same,concentration at 0.5 h,"female, 1 mg/kg, anatabine 1.0 mg/kg i.v., 0.5 hr, Female, read-out: Mean concentration in rat brain extracts",346 ± 56.7 ng/g
same,concentration at 6 h,"female, 1 mg/kg, anatabine 1.0 mg/kg i.v., 6 hr, Female, read-out: Mean concentration in rat brain extracts",6 ± 2.8 ng/g
same,concentration at 0.5 h,"male, 0.1 mg/kg, Anatabine 0.1 mg/kg, male, 0.5 hr, read-out: Avg. Conc. rat brain",20 ng/g
same,concentration at 6 h,"male, 0.1 mg/kg, Anatabine 0.1 mg/kg, male, 6 hr, read-out: Avg. Conc. rat brain",3 ng/g
same,concentration at 24 h,"male, 0.1 mg/kg, Anatabine 0.1 mg/kg, male, 24 hr, read-out: Avg. Conc. rat brain",3 ng/g
same,concentration at 0.5 h,"male, 0.1 mg/kg, anatabine 0.1 mg/kg i.v., 0.5 hr, Male, read-out: Mean concentration in rat brain extracts",20 ± 1.4 ng/g
same,concentration at 6 h,"male, 0.1 mg/kg, anatabine 0.1 mg/kg i.v., 6 hr, Male, read-out: Mean concentration in rat brain extracts",3 ng/g
same,concentration at 24 h,"male, 0.1 mg/kg, anatabine 0.1 mg/kg i.v., 24 hr, Male, read-out: Mean concentration in rat brain extracts",3 ng/g
same,concentration at 0.5 h,"male, 0.75 mg/kg, Anatabine 0.75 mg/kg, male, 0.5 hr, read-out: Avg. Conc. rat brain",276 ng/g
same,concentration at 6 h,"male, 0.75 mg/kg, Anatabine 0.75 mg/kg, male, 6 hr, read-out: Avg. Conc. rat brain",21.3 ng/g
same,concentration at 0.5 h,"male, 0.75 mg/kg, anatabine 0.75 mg/kg i.v., 0.5 hr, Male, read-out: Mean concentration in rat brain extracts",276 ± 37 ng/g
same,concentration at 0.5 h,"male, 1 mg/kg, Anatabine 1.0 mg/kg, male, 0.5 hr, read-out: Avg. Conc. rat brain",323 ng/g
same,concentration at 6 h,"male, 1 mg/kg, Anatabine 1.0 mg/kg, male, 6 hr, read-out: Avg. Conc. rat brain",5 ng/g
same,concentration at 24 h,"male, 1 mg/kg, Anatabine 1.0 mg/kg, male, 24 hr, read-out: Avg. Conc. rat brain",2.5 ng/g
same,concentration at 0.5 h,"male, 1 mg/kg, anatabine 1.0 mg/kg i.v., 0.5 hr, Male, read-out: Mean concentration in rat brain extracts",323 ± 35.9 ng/g
same,concentration at 6 h,"male, 1 mg/kg, anatabine 1.0 mg/kg i.v., 6 hr, Male, read-out: Mean concentration in rat brain extracts",5 ± 2.6 ng/g
same,concentration at 24 h,"male, 1 mg/kg, anatabine 1.0 mg/kg i.v., 24 hr, Male, read-out: Mean concentration in rat brain extracts",2.5 ± 0.7 ng/g
same,appearance in brain tissue following i.v. administration,"single i.v., rats",rapidly appear in brain tissue
